The record followed here is patent US20120115893A1, “Substituted Bicyclic Carboxamide and Urea Compounds as Vanilloid Receptor Ligands” (Gruenenthal GmbH, priority 2010, published 2012).

Experiment [1] addresses T1, vanilloid receptor 1 (VR1/TRPV1 receptor) (Homo sapiens, UniProt Q8NER1).
T1 construct: expressed in transfected cells; host or cells: CHO K1 cells (ECACC), stably transfected
Kind of experiment: FLIPR Ca2+ influx assay, capsaicin stimulus, CHO K1 cells transfected with human VR1 gene. It counts as cell-based, human being. The settings on record: for Ki / (f) Ki (human being) [nM] Cap: functional, NE=no effect; for Ki: read-out: (f) Ki (human being) [nM] Cap; for inhibition at 5 µM: CHO-K1, @ 5 μM, read-out: inhibition (as a percentage), (f) Ki (human being) Cap column. As to the method:
Furthermore, preference may be given to compounds according to the invention of general formula (I) that cause a 50 percent displacement of capsaicin, which is present at a concentration of 100 nM, in a FLIPR assay with CHO K1 cells which were transfected with the human VR1 gene at a concentration of less than 2,000 nM, preferably less than 1,000 nM, particularly preferably less than 300 nM, most particularly preferably less than 100 nM, even more preferably less than 75 nM, additionally preferably less than 50 nM, most preferably less than 10 nM.
In the process, the Ca^2+ influx is quantified in the FLIPR assay with the aid of a Ca^2+-sensitive dye (type Fluo-4, Molecular Probes Europe BV, Leiden, the Netherlands) in a fluorescent imaging plate reader (FLIPR, Molecular Devices, Sunnyvale, USA), as described hereinafter.
(§1) The agonistic or antagonistic effect of the substances to be tested on the vanilloid receptor 1 (VR1) can also be determined using the following assay. In this assay, the influx of Ca^2+ through the channel is quantified with the aid of a Ca^2+-sensitive dye (type Fluo-4, Molecular Probes Europe BV, Leiden, the Netherlands) in a fluorescent imaging plate reader (FLIPR, Molecular Devices, Sunnyvale, USA).
(§2) Chinese hamster ovary cells (CHO K1 cells, European Collection of Cell Cultures (ECACC) United Kingdom) are stably transfected with the VR1 gene. For functional testing, these cells are plated out on poly-D-lysine-coated black 96-well plates having a clear base (BD Biosciences, Heidelberg, Germany) at a density of 25,000 cells/well. The cells are incubated overnight at 37° C. and 5% CO2 in a culture medium (Ham's F12 nutrient mixture, 10% by volume of FCS (foetal calf serum), 18 μg/ml of L-proline). The next day the cells are incubated with Fluo-4 (Fluo-4 2 μM, 0.01% by volume of Pluronic F127, Molecular Probes in HBSS (Hank's buffered saline solution), Gibco Invitrogen GmbH, Karlsruhe, Germany) for 30 minutes at 37° C. Subsequently, the plates are washed three times with HBSS buffer and after further incubation for 15 minutes at RT used for Ca^2+ measurement in a FLIPR assay. The Ca^2+-dependent fluorescence is measured before and after the addition of the substances to be tested (λex wavelength=488 nm, λem=540 nm). Quantification is carried out by measuring the highest fluorescence intensity (FC, fluorescence counts) over time.
The FLIPR protocol consists of 2 substance additions. First the compounds to be tested (10 μM) are pipetted onto the cells and the Ca^2+ influx is compared with the control (capsaicin 10 μM) (% activation based on the Ca^2+ signal after the addition of 10 μM of capsaicin). After 5 minutes' incubation, 100 nM of capsaicin are applied and the Ca^2+ influx is also determined.
Desensitising agonists and antagonists led to suppression of the Ca^2+ influx. The % inhibition is calculated compared to the maximum achievable inhibition with 10 μM of capsaicin.
Starting from the percentage displacement caused by different concentrations of the compounds to be tested of general formula I, IC50 inhibitory concentrations which cause a 50-percent displacement of capsaicin were calculated. K, values for the test substances were obtained by conversion by means of the Cheng-Prusoff equation (Cheng, Prusoff; Biochem. Pharmacol. 22, 3099-3108, 1973).

Experiment [2] concerns the target T1, vanilloid receptor 1 (VR1/TRPV1 receptor). Nature of the experiment: Functional VR1 assay, heat stimulus 45° C. The experiment is classed as cell-based, human being. The settings on record: human VR1, heat stimulus 45° C.
Source text: as §1
as §2, with “Subsequently, the plates are washed three times with HBSS buffer and after further incubation for 15 minutes at RT used for Ca^2+ measurement in a FLIPR assay.” left out

Experiment [3] deals with T2, vanilloid receptor 1 (VR1/TRPV1 receptor) (Mus musculus, UniProt Q704Y3).
T2 construct: expressed in transfected cells; host or cells: CHO K1 cells stably transfected (inferred from method II)
Kind of experiment: FLIPR Ca2+ influx assay, capsaicin stimulus, mouse VR1. The experiment is classed as cell-based. Conditions: functional, read-out: (f) Ki (mouse) [nM] Cap.
Source text: as §1
Chinese hamster ovary cells (CHO K1 cells, European Collection of Cell Cultures (ECACC) United Kingdom) are stably transfected with the VR1 gene. For functional testing, these cells are plated out on poly-D-lysine-coated black 96-well plates having a clear base (BD Biosciences, Heidelberg, Germany) at a density of 25,000 cells/well. […] The Ca^2+-dependent fluorescence is measured before and after the addition of the substances to be tested (λex wavelength=488 nm, λem=540 nm). Quantification is carried out by measuring the highest fluorescence intensity (FC, fluorescence counts) over time.
The FLIPR protocol consists of 2 substance additions. […] After 5 minutes' incubation, 100 nM of capsaicin are applied and the Ca^2+ influx is also determined. […]
Starting from the percentage displacement caused by different concentrations of the compounds to be tested of general formula I, IC50 inhibitory concentrations which cause a 50-percent displacement of capsaicin were calculated. […]

T1 sequence (Q8NER1 whole entry): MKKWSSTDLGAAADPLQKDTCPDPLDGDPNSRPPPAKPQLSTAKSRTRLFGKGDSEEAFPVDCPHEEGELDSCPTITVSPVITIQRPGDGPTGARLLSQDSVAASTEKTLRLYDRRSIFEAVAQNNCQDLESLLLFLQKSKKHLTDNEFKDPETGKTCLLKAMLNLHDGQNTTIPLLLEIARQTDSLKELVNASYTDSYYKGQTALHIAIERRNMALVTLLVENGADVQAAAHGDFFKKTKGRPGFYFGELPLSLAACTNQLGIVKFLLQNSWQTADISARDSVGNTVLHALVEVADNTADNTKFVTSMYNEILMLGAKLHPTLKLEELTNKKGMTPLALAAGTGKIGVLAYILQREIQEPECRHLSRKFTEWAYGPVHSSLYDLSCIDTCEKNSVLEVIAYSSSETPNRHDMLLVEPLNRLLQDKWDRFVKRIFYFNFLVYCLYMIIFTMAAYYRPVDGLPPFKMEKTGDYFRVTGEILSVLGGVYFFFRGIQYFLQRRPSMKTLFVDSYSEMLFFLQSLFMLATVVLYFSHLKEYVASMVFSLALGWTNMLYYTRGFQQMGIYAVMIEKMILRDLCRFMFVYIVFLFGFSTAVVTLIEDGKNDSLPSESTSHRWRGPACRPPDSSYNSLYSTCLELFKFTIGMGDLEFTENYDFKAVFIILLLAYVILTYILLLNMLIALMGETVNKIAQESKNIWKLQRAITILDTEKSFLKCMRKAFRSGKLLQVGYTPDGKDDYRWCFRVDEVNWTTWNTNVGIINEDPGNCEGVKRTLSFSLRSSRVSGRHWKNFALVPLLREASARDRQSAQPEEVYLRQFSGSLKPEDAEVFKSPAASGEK
T2 sequence (Q704Y3 whole entry): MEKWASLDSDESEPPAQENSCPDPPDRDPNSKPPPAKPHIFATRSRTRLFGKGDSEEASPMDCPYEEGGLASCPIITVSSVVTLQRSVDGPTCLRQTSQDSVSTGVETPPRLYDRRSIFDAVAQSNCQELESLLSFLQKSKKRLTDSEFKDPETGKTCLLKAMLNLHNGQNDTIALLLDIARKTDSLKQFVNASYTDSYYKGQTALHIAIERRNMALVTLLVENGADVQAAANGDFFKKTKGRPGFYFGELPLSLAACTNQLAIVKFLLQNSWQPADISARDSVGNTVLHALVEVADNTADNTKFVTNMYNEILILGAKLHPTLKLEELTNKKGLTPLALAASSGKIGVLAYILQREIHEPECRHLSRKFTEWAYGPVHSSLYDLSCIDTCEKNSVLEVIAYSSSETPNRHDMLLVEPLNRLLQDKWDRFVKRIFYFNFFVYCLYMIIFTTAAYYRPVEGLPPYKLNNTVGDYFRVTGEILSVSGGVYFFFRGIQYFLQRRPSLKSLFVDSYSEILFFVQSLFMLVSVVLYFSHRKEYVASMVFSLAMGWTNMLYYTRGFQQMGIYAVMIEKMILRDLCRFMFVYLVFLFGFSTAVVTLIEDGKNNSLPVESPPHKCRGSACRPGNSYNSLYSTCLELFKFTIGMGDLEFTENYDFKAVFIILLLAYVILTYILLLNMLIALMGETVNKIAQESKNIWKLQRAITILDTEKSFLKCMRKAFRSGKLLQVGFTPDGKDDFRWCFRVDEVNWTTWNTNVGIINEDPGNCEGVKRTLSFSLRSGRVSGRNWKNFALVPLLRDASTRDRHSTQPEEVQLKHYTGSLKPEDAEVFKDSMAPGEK

As usually defined, the Ki is the dissociation constant of the complex between target and ligand, obtained from inhibition or displacement. For orientation: inhibition means the change of the read-out against control, counted positive when it falls. On to `CC(C(=O)NCc1cc(C(F)(F)F)nn1-c1cccc(Cl)c1)C1CCCc2ccc(O)cc21` (stereo not drawn) [Example 12, N-((1-(3-chlorophenyl)-3-(trifluoromethyl)-1H-pyrazol-5-yl)methyl)-2-(7-hydroxy-1,2,3,4-tetrahydronaphthalen-1-yl)propanamide], for which, in experiment [1], the inhibition constant (Ki) was determined as 49.2 nM. Further, the inhibition at 2.5 µM in experiment [2] (@ 2.5 μM, read-out: inhibition (as a percentage), IC50 (human being) 45° C. column) turned out to be 30%.

For “N-((1-(3-chlorophenyl)-3-(trifluoromethyl)-1H-pyrazol-5-yl)methyl)-2-(7-hydroxy-1,2,3,4-tetrahydronaphthalen-1-yl)propanamide [Example 10]”, the “inhibition (as a percentage), (f) Ki (human being) Cap column” value in experiment [1] (@ 1 μM) worked out at 14% @ 1 μM; in experiment [1] (@ 5 μM), 34% @ 5 μM.

By IC50 is commonly meant the concentration that gives 50% inhibition. With `O=C(NCc1cc(C(F)(F)F)nn1-c1cccc(Cl)c1)NC1CCCc2ccc(O)cc21` (stereo not drawn) [Example 13, 1-((1-(3-chlorophenyl)-3-(trifluoromethyl)-1H-pyrazol-5-yl)methyl)-3-(7-hydroxy-1,2,3,4-tetrahydronaphthalen-1-yl)urea], in experiment [1], the Ki is 16.1 nM. Moreover, the half-inhibitory concentration (IC50) in experiment [2] (read-out: IC50 (human being) [nM], 45° C.) is 1860 nM.

In the case of `CC(C)(C)c1cc(CNC(=O)NC2CCCc3ccc(O)cc32)n(-c2cccc(Cl)c2)n1` (stereo not drawn) [Example 14, 1-((3-tert-butyl-1-(3-chlorophenyl)-1H-pyrazol-5-yl)methyl)-3-(7-hydroxy-1,2,3,4-tetrahydronaphthalen-1-yl)urea], the inhibition constant Ki came to 7.7 nM in experiment [1] and 132 nM in experiment [3].

On to `O=C(NCc1cc(C(F)(F)F)nn1-c1cccc(Cl)c1)NC1CCCc2cnccc21` (stereo not drawn) [Example 19, 1-((1-(3-chlorophenyl)-3-(trifluoromethyl)-1H-pyrazol-5-yl)methyl)-3-(5,6,7,8-tetrahydroisoquinolin-5-yl)urea], for which the inhibition at 5 µM in experiment [1] stood at 38%.

On to `CC(C)(C)c1ccc2c(c1)C[C@H](NC(=O)NCc1cc(C(C)(C)C)nn1-c1cccc(Cl)c1)C2` [Example 4, (R)-1-((3-tert-butyl-1-(3-chlorophenyl)-1H-pyrazol-5-yl)methyl)-3-(5-tert-butyl-2,3-dihydro-1H-inden-2-yl)ure], for which the “(f) Ki (human being) [nM] Cap” value in experiment [1] is “Ne”.

On to `CC(C(=O)NCc1cc(C(F)(F)F)nn1-c1ccc(F)c(Cl)c1)C1CCCc2ccc(O)cc21` (stereo not drawn) [Example 15, N-((1-(3-chloro-4-fluorophenyl)-3-(trifluoromethyl)-1H-pyrazol-5-yl)methyl)-2-(7-hydroxy-1,2,3,4-tetrahydronaphthalen-1-yl)propanamide], for which, in experiment [1], the inhibition constant (Ki) was found to be 29.5 nM.

For `CC(C)(C)c1ccc2c(c1)CC[C@@H]2NC(=O)NCc1cc(C(F)(F)F)nn1-c1cccc(Cl)c1` [Example 3, (S)-1-(5-tert-butyl-2,3-dihydro-1H-inden-1-yl)-3-((1-(3-chlorophenyl)-3-(trifluoromethyl)-1H-pyrazol-5-yl)methyl)urea], in experiment [1], the “(f) Ki (human being) [nM] Cap” value was “Ne”.

Consider `CC(C)(C)c1ccc2c(c1)CC[C@H]2NC(=O)NCc1cc(C(F)(F)F)nn1-c1cccc(Cl)c1` [Example 2, (R)-1-(5-tert-butyl-2,3-dihydro-1H-inden-1-yl)-3-((1-(3-chlorophenyl)-3-(trifluoromethyl)-1H-pyrazol-5-yl)methyl)urea], for which the inhibition at 5 µM in experiment [1] stood at 33%.

Take `CC(C)(C)c1cc(CNC(=O)NC2CCCc3cnccc32)n(-c2cccc(Cl)c2)n1` (stereo not drawn) [Example 20, 1-((3-tert-butyl-1-(3-chlorophenyl)-1H-pyrazol-5-yl)methyl)-3-(5,6,7,8-tetrahydroisoquinolin-5-yl)urea]: the inhibition constant (Ki) in experiment [1] is 73.6 nM.

In the case of `Cn1ncc2c1CCCC2NC(=O)NCc1cc(C(F)(F)F)nn1-c1cccc(Cl)c1` (stereo not drawn) [Example 7, 1-((1-(3-chlorophenyl)-3-(trifluoromethyl)-1H-pyrazol-5-yl)methyl)-3-(1-methyl-4,5,6,7-tetrahydro-1H-indazol-4-yl)urea], the “(f) Ki (human being) [nM] Cap” value in experiment [1] is reported as “Ne”.
